The nature of data set [1]: CLint (intrinsic clearance) assay, microsomal incubation. The format is in vitro ADME, Human. Particulars: NADPH, 37° C., up to 30 min; for microsomal CLint at 0.8 μM: human, liver microsomes, pH 7.4, human liver microsomes 0.5 mg/mL protein. How it is done:
2. CLint (Intrinsic Clearance) Assay
A Tecan Genesis workstation (RWS ASY 150/8) was used to perform the microsomal incubations. Analysis was carried out using a Waters ACQUITY UPLC system coupled to an ABSciex API3000 mass spectrometer. Data analysis was performed using Assay Explorer (Symyx).
0.1 M potassium phosphate buffer pH 7.4 containing 1 mM MgCl2
15 mM NADPH in phosphate buffer
5.0 mg protein/mL liver microsomes in phosphate buffer
Each experiment consists of 12 test and 2 reference compounds. The reference compounds are incubated as a cocktail.
Dilution of test compounds was done in 2 steps from a 10 mM DMSO stock solution. First 4 μL stock solution was added to 196 μL of 20% DMSO in potassium phosphate buffer pH 7.4. In a second step 10 μL of the first dilution were added to […] potassium phosphate buffer and 100 μL internal standard solution to a final concentration of 0.8 μM. 100 μL of the final compound dilution were aliquoted into a 96 deep well plate. 12.5 μL liver microsomes were added to each well (0.5 mg/mL final protein concentration) and the samples preincubated for 5 min at 37° C. and 800 rpm agitation.
After the preincubation, 250 μL cold acetonitrile were added to the 0 min samples to prevent a reaction. Following this, 12.5 μL NADPH solution were added to all wells to start the incubation, with the exception of the 0 min and 30 min controls without cofactor, where the NADPH was substituted for phosphate buffer.
The incubations were stopped after 5, 10, 20 and 30 min by adding 250 μL cold acetonitrile to the individual wells.
The quenched samples were then centrifuged at 4000 g for 1 h at 4° C. 100 μL of the supernatant were transferred into 96 well plates for analysis.
The metabolic stability of each compound was determined by measurement of the change in LC-MS/MS peak area over time. Assay Explorer software was used to automatically calculate the slope k of the decline. The intrinsic clearance (CLint) of each compound was then calculated according to the formula: CLint(μL/min/mg protein)=k1000/protein concentration.
CLint is shown for each compound in Table 3 below.

The subject of another data set is Wnt pathway. Briefly: Cellular assay for Wnt pathway activity (luciferase reporter cell based assay). The following applies: 24 h, HEK293 luciferase reporter cell line (ER-DSH, TCF dependent promoter), induced with estrogen (1 μM), read-out: 7df3 IC50. Background: A reporter such as luciferase makes a cellular process visible.

The structures appear in SMILES notation.

For orientation: microsomal CLint means a measure of how fast metabolising enzymes remove a compound, apart from limits set by blood flow. The term IC50 denotes the point on the concentration scale where inhibition reaches its midpoint. `O=C1NCCC12CCN(c1c(Cl)cncc1-c1ccc3oc(=O)[nH]c3c1)CC2` [Example 3, 5-[5-Chloro-4-(1-oxo-2,8-diaza-spiro[4.5]dec-8-yl)-pyridin-3-yl]-3H-benzooxazol-2-one]: in data set [1], the intrinsic metabolic clearance (microsomal CLint) at 0.8 μM came out at 35 µL/min/mg. Also, the IC50 with Wnt pathway was 4.4 nM.

As for `Cn1ncc2cc(-c3cncc(Cl)c3N3CCC4(CC3)CNC(=O)O4)ccc21` [Example 4, 8-[3-Chloro-5-(1-methyl-1H-indazol-5-yl)-pyridin-4-yl]-1-oxa-3,8-diaza-spiro[4.5]decan-2-one], in data set [1], the microsomal CLint at 0.8 μM was determined as 23 µL/min/mg. In the data set on Wnt pathway, the IC50 stood at 10 nM.

In the case of `CC(C)n1cc(-c2ccc(-c3cncc(Cl)c3N3CCC4(CCNC4=O)CC3)cc2)cn1` [Example 6, 8-{3-Chloro-5-[4-(1-isopropyl-1H-pyrazol-4-yl)-phenyl]-pyridin-4-yl}-2,8-diaza-spiro[4.5]decan-1-one], the microsomal CLint at 0.8 μM in data set [1] was determined as 90 µL/min/mg. Further, the IC50 with Wnt pathway was determined as 6.2 nM.

For `O=C1NCC2(CCN(c3c(Cl)cncc3-c3ccc4oc(=O)[nH]c4c3)CC2)O1` [Example 8, 8-[3-Chloro-5-(2-oxo-2,3-dihydro-benzooxazol-5-yl)-pyridin-4-yl]-1-oxa-3,8-diaza-spiro[4.5]decan-2-one], the microsomal CLint at 0.8 μM in data set [1] amounted to 16 µL/min/mg. The IC50 in the data set with Wnt pathway was determined as 9.7 nM.

Regarding `Cn1ncc2ccc(-c3cncc(Cl)c3N3CCC4(CC3)CNC(=O)O4)cc21` [Example 10, 8-[3-Chloro-5-(1-methyl-1H-indazol-6-yl)-pyridin-4-yl]-1-oxa-3,8-diaza-spiro[4.5]decan-2-one], the microsomal CLint at 0.8 μM in data set [1] came out at 13 µL/min/mg. Further, in the data set with Wnt pathway, the IC50 is 28 nM.

Take `CN1C(=O)Cc2cc(-c3cncc(Cl)c3N3CCC4(CC3)CNC(=O)O4)ccc21` [Example 11, 8-[3-Chloro-5-(1-methyl-2-oxo-2,3-dihydro-1H-indol-5-yl)-pyridin-4-yl]-1-oxa-3,8-diaza-spiro[4.5]decan-2-one]: the microsomal CLint at 0.8 μM in data set [1] is under 10 µL/min/mg. Also, the IC50 with Wnt pathway came out at 33 nM.

As to `O=C1CCc2ccc(-c3cncc(Cl)c3N3CCC4(CCNC4=O)CC3)cc2N1` [Example 12, 7-[5-Chloro-4-(1-oxo-2,8-diaza-spiro[4.5]dec-8-yl)-pyridin-3-yl]-3,4-dihydro-1H-quinolin-2-one], the microsomal CLint at 0.8 μM in data set [1] was 27 µL/min/mg. The IC50 with Wnt pathway was determined as 43 nM.

`Nc1n[nH]c2cc(-c3cncc(Cl)c3N3CCC4(CC3)CC(=O)NC4=O)ccc12` [Example 14, 8-[3-(3-Amino-1H-indazol-6-yl)-5-chloro-pyridin-4-yl]-2,8-diaza-spiro[4.5]decane-1,3-dione]: the microsomal CLint at 0.8 μM in data set [1] was under 10 µL/min/mg. The IC50 with Wnt pathway worked out at 18 nM.

On to `O=C1NCC2(CCN(c3c(Cl)cncc3-c3ccc(-c4cnn(CCO)c4)cc3)CC2)O1` [Example 15, 8-(3-Chloro-5-{4-[1-(2-hydroxy-ethyl)-1H-pyrazol-4-yl]-phenyl}-pyridin-4-yl)-1-oxa-3,8-diaza-spiro[4.5]decan-2-one], for which, in data set [1], the microsomal CLint at 0.8 μM is under 10 µL/min/mg. Further, the IC50 with Wnt pathway is 17 nM.

On to `Cn1cc(-c2ccc(-c3cncc(Cl)c3N3CCC4(CC3)NC(=O)CNC4=O)cc2)cn1` [Example 17, 9-{3-Chloro-5-[4-(1-methyl-1H-pyrazol-4-yl)-phenyl]-pyridin-4-yl}-1,4,9-triaza-spiro[5.5]undecane-2,5-dione], for which, in data set [1] (human liver microsomes 0.5 mg/mL protein), the “Human Clint” value amounted to 11 µL/min/mg. In the data set with Wnt pathway, the IC50 worked out at 11 nM.

In the case of `CC1=NC(=O)C2(CCN(c3c(Cl)cncc3-c3ccc4c(cnn4C)c3)CC2)N1` [Example 19, 8-[3-Chloro-5-(1-methyl-1H-indazol-5-yl)-pyridin-4-yl]-2-methyl-1,3,8-triaza-spiro[4.5]dec-2-en-4-one], the microsomal CLint at 0.8 μM in data set [1] is under 10 µL/min/mg. The IC50 with Wnt pathway was 21 nM.

As for `CC1=NC(=O)C2(CCN(c3c(Cl)cncc3-c3ccc(-c4cnn(C)c4)cc3)CC2)N1` [Example 20, 8-{3-Chloro-5-[4-(1-methyl-1H-pyrazol-4-yl)-phenyl]-pyridin-4-yl}-2-methyl-1,3,8-triaza-spiro[4.5]dec-2-en-4-one], in data set [1], the intrinsic metabolic clearance (microsomal CLint) at 0.8 μM turned out to be 24 µL/min/mg. Besides, the IC50 in the data set with Wnt pathway came to 22 nM.

Consider `CN1c2ccc(-c3cncc(Cl)c3N3CCC4(CC3)NC(=O)CNC4=O)cc2CS1(=O)=O` [Example 21, 9-[3-Chloro-5-(1-methyl-2,2-dioxo-2,3-dihydro-1H-2l6-benzo[c]isothiazol-5-yl)-pyridin-4-yl]-1,4,9-triaza-spiro[5.5]undecane-2,5-dione], for which the intrinsic clearance (microsomal CLint) at 0.8 μM in data set [1] is under 10 µL/min/mg. In the data set with Wnt pathway, the IC50 came out at 31 nM.

Consider `CNC(=O)c1ccc(-c2cncc(Cl)c2N2CCC3(CCNC3=O)CC2)cc1` [Example 22, 4-[5-Chloro-4-(1-oxo-2,8-diaza-spiro[4.5]dec-8-yl)-pyridin-3-yl]-N-methyl-benzamide], for which the microsomal CLint at 0.8 μM in data set [1] came to 27 µL/min/mg. Also, in the data set with Wnt pathway, the IC50 was 46 nM.

For the compound `COC(=O)Nc1n[nH]c2cc(-c3cncc(Cl)c3N3CCC4(CCNC4=O)CC3)ccc12` [Example 23, {6-[5-Chloro-4-(1-oxo-2,8-diaza-spiro[4.5]dec-8-yl)-pyridin-3-yl]-1H-indazol-3-yl}-carbamic acid methyl ester], in data set [1], the microsomal CLint at 0.8 μM is 49 µL/min/mg. Further, the IC50 in the data set on Wnt pathway was 39 nM.

Turning to `Cn1cc(-c2ccc(-c3cncc(Cl)c3N3CCC(F)(C(N)=O)CC3)cc2)cn1` [Example 25, 5′-Chloro-4-fluoro-3′-[4-(1-methyl-1H-pyrazol-4-yl)-phenyl]-3,4,5,6-tetrahydro-2H-[1,4′]bipyridinyl-4-carboxylic acid amide], the microsomal CLint at 0.8 μM in data set [1] worked out at 23 µL/min/mg. Moreover, the IC50 in the data set with Wnt pathway came to 7 nM.

As for `CC(C)(C)N1Cc2cc(-c3cncc(Cl)c3N3CCC4(CCNC4=O)CC3)ccc2S1(=O)=O` [Example 26, 8-[3-(2-tert-Butyl-1,1-dioxo-2,3-dihydro-1H-1l6-benzo[d]isothiazol-5-yl)-5-chloro-pyridin-4-yl]-2,8-diaza-spiro[4.5]decan-1-one], the microsomal CLint at 0.8 μM in data set [1] came to 30 µL/min/mg. The IC50 in the data set on Wnt pathway worked out at 20 nM.

As to `Cn1nc(N)c2ccc(-c3cncc(Cl)c3N3CCC4(CC3)CNC(=O)O4)cc21` [Example 27, 8-[3-(3-Amino-1-methyl-1H-indazol-6-yl)-5-chloro-pyridin-4-yl]-1-oxa-3,8-diaza-spiro[4.5]decan-2-one], in data set [1], the intrinsic metabolic clearance (microsomal CLint) at 0.8 μM came out at 58 µL/min/mg. Further, the IC50 in the data set on Wnt pathway came out at 2 nM.

For `Cn1nc(N)c2ccc(-c3cncc(Cl)c3N3CCC4(CC3)CC(=O)NC4=O)cc21` [Example 28, 8-[3-(3-Amino-1-methyl-1H-indazol-6-yl)-5-chloro-pyridin-4-yl]-2,8-diaza-spiro[4.5]decane-1,3-dione], the microsomal CLint at 0.8 μM in data set [1] was determined as 60 µL/min/mg. In addition, in the data set on Wnt pathway, the IC50 came to 1.3 nM.

Turning to `O=C1NCCC12CCN(c1c(Cl)cncc1-c1ccc3c(c1)C(O)CS3(=O)=O)CC2` (stereo not drawn) [Example 29, 8-[3-Chloro-5-(3-hydroxy-1,1-dioxo-2,3-dihydro-1H-1l6-benzo[b]thiophen-5-yl)-pyridin-4-yl]-2,8-diaza-spiro[4.5]decan-1-one], the microsomal CLint at 0.8 μM in data set [1] is 12 µL/min/mg. In addition, the 50% inhibitory concentration (IC50) in the data set with Wnt pathway came to 16 nM.

On to `CN1c2ccc(-c3cncc(Cl)c3N3CCC4(CC3)CC(=O)NN4)cc2CS1(=O)=O` [Example 30, 8-[3-Chloro-5-(1-methyl-2,2-dioxo-2,3-dihydro-1H-2l6-benzo[c]isothiazol-5-yl)-pyridin-4-yl]-1,2,8-triaza-spiro[4.5]decan-3-one], for which, in data set [1], the microsomal CLint at 0.8 μM came to 27 µL/min/mg. The IC50 with Wnt pathway amounted to 13 nM.

Consider `CN1c2ccc(-c3cncc(Cl)c3N3CCC(F)(C(N)=O)CC3)cc2CS1(=O)=O` [Example 31, 5′-Chloro-4-fluoro-3′-(1-methyl-2,2-dioxo-2,3-dihydro-1H-2l6-benzo[c]isothiazol-5-yl)-3,4,5,6-tetrahydro-2H-[1,4′]bipyridinyl-4-carboxylic acid amide], for which the microsomal CLint at 0.8 μM in data set [1] is 51 µL/min/mg. For the same compound, the half-inhibitory concentration (IC50) with Wnt pathway amounted to 2.8 nM.

Consider `O=C1NCCC12CCN(c1c(Cl)cncc1-c1ccc3c(c1)CS(=O)(=O)C3)CC2` [Example 32, 8-[3-Chloro-5-(2,2-dioxo-2,3-dihydro-1H-2l6-benzo[c]thiophen-5-yl)-pyridin-4-yl]-2,8-diaza-spiro[4.5]decan-1-one], for which the microsomal CLint at 0.8 μM in data set [1] amounted to 70 µL/min/mg. Further, in the data set with Wnt pathway, the IC50 stood at 4.7 nM.

Turning to `CN1c2ccc(-c3cncc(Cl)c3N3CCC(C#N)(CCO)CC3)cc2CS1(=O)=O` [Example 33, 5′-Chloro-4-(2-hydroxy-ethyl)-3′-(1-methyl-2,2-dioxo-2,3-dihydro-1H-2l6-benzo[c]isothiazol-5-yl)-3,4,5,6-tetrahydro-2H-[1,4′]bipyridinyl-4-carbonitrile], the microsomal CLint at 0.8 μM in data set [1] turned out to be 88 µL/min/mg. In the data set with Wnt pathway, the IC50 is 0.6 nM.

The record behind these values is patent publication US9926319B2, “Pyridyl piperidines” (MERCK PATENT GMBH, priority 2014, dated 2018).
